# Assays:
# [1] = tested on: STZ-induced diabetic mice; experiment: STZ-induced diabetic neuropathy mouse model, paw thermal withdrawal latency; format: in vivo; settings: STZ diabetic Swiss Webster mice, FIG. 3
# Experimental: To test a peptide in a diabetic neuropathy mouse model, male Swiss Webster mice are given a single injection of STZ (180 mg/kg i.p.) to induce insulin-deficient diabetes. Hyperglycemia is confirmed 3 days thereafter, and to ensure induction of sufficient neuropathy, only mice with blood glucose levels exceeding 15 mmol/l are used. […] The time from initiation of heating to paw withdrawal is recorded in 4 separate trials 5 minutes apart, with the median value of the last 3 trials used for each mouse. […]
# Briefly, male Swiss Webster mice were given a single injection of STZ (180 mg/kg i.p.) to induce insulin-deficient diabetes. […] The time from initiation of heating to paw withdrawal was recorded in 4 separate trials 5 minutes apart, with the median value of the last 3 trials used for each mouse.
# Akt = experiment: Activation of Akt phosphorylation in HUVECs (Western blot); format: cell-based; settings: HUVECs treated with peptide; Western blot anti-phospho-Akt / anti-Akt; FIG. 2
# Experimental: In one assay for the activation of AKT by phosphorylation, HUVECs are purchased from Cell Applications (San Diego, Calif.) and grown in medium EGM-2 supplemented with 2% fetal calf serum (FCS) and penicillin/streptomycin (P/S) at 37° C. under air containing 5% CO2 in a humidified incubator. Preliminary experiments can be performed to determine the time course of the phosphorylation of Akt following stimulation by compounds that activated the tissue protective receptor. In some assays, the phosphorylation of Akt reaches a maximum 10 minutes following stimulation by compounds that activated the tissue protective receptor. After HUVECs are treated with tissue protective peptides or controls, cell lysates are prepared and Western blot is performed using anti-Akt and anti-phospho-Akt antibodies (Cell Signaling Technology, Danvers, Mass.). To perform the Western blot, cell lysates are subjected to SDS-PAGE, and transferred to nitrocellulose membranes (Amersham Biosciences, Piscataway, N.J.). The membrane is blocked for 1 h at room temperature with PBS containing 2% BSA and 0.05% Tween 20. The blots are incubated overnight at 4° C. or for 4 h at room temperature with a primary antibody against phospho-Akt, followed by incubation for 1 h with a secondary, horseradish peroxidase-conjugated antibody. Then the blots are reprobed with an antibody against Akt to confirm equal protein loading. […]
substance,measurement,setting,value
GDKA (Tissue protective peptide),thermal threshold (thermal withdrawal latency),"[1]; eye drops 50 microliters of 50 nanomolar solution to both eyes five days/week, after 12 weeks of therapy",normal thermal threshold
same,thermal threshold compared with PBS-treated diabetic mice,"[1]; eye drops 50 nanomolar, five days/week, 12 weeks",significantly lower
same,activation of AKT (phosphorylation of Akt),Akt,activated AKT
